{"source": "patent US9695462B2", "about": "“Method for evaluation of drug efficacy of a medicine having a therapeutic or preventive effect against a disease related to EL activity and a method for screening an inhibitor of EL activity” (SHIONOGI & CO., LTD., priority 2012, dated 2017)", "target": "T1, mouse EL (Mus musculus, UniProt Q9WVG5)", "T1 construct": "made in house; host or cells: Freestyle 293F cells (pcDNA-DEST40 vector)", "T1 sequence (Q9WVG5 21-500)": "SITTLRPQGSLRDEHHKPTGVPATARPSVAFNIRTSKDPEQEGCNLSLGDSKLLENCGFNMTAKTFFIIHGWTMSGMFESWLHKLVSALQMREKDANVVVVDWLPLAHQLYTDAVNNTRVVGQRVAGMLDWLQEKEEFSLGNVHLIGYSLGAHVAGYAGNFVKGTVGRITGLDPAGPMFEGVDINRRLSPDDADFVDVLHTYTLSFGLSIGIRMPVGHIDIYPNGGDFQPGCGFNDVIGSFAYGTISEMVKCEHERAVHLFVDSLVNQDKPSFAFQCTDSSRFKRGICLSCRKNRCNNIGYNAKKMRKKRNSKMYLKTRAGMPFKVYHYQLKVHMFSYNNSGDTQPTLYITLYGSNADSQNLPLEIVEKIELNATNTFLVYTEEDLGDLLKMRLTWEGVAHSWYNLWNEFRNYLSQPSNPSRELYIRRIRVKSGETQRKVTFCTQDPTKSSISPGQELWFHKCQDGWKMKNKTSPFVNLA", "assay": "Inhibition of mouse EL activity using phosphatidylinositol-HDL as a substrate (NEFA production)", "format": "biochemical", "conditions": "37° C. for 2 hr, FIG. 5", "protocol": "Phosphatidylinositol (Avanti Polar Lipids Inc.) in chloroform was collected the necessary amount, which was completely evaporated the solvent to dryness under nitrogen. After addition of PBS, phosphatidylinositol-HDL induced phosphatidylinositol (2.5 mg/ml) into HDL (5 mg/ml) was prepared by mixing phosphatidylinositol vesicle prepared by sonication on ice with human HDL (Athens Research & Technology, Inc.) and incubating at 4° C. for 24 hr. The pcDNA-DEST40 (Invitrogen Corp.) cloned DNA encoding mouse EL was transfected into Freestyle 293F cells and the cells were cultured at 37° C. for 2 days in an atmosphere of 8% CO2. The cells were collected by centrifugation of the culture medium, suspended in Freestyle 293 Expression Medium (Invitrogen Corp.) containing 20 U/ml heparin and incubated at 37° C. for 45 min. After that, the supernatant obtained by removing the cells by centrifugation was used as mouse EL enzyme solution. […] After reaction at 37° C. for 2 hr, the amount of NEFA produced from substrate by EL was measured with NEFA C-test Wako (Wako Pure Chemical Industries, Ltd.) and the amount of NEFA (absorbance) was assumed an index of enzyme activity. The enzyme activity was calculated by subtracting the background value equivalent to the amount of endogenous NEFA without mouse EL enzyme solution from the value measured in enzyme reaction of EL (FIG. 4)."}
{"smiles": "CCCCCCCCCCC[C@@H](C[C@@H]1OC(=O)[C@H]1CCCCCC)OC(=O)[C@H](CC(C)C)NC=O", "note": "[orlistat]", "values": [{"measurement": "inhibitory activity against mouse EL (inhibition rate)", "value": "dose-dependent inhibition"}]}
